Test system: dermis equivalent model consisting of a matrix of collagen seeded with normal human fibroblasts
Test: Dermo-decontracting effect on dermis equivalent model (spontaneous contraction of collagen gel)
Type: cell-based
Conditions: for activity as dermo-decontracting agent in the test of Example 1: dermis equivalent test presented in Example 1

SMILES: CN1C(=O)CN=C(c2ccccc2)c2cc(Cl)ccc21 [diazepam]
- activity as dermo-decontracting agent in the test of Example 1: not active

SMILES: COc1ccc([C@@H]2Sc3ccccc3N(CCN(C)C)C(=O)[C@@H]2OC(C)=O)cc1 [diltiazem]
- activity as dermo-decontracting agent in the test of Example 1: not active

SMILES: O=C(O)/C=C\C(=O)O.c1ccc(CCCCN2CCC(c3ccccc3)CC2)cc1 [maleic acid salt of 4-phenyl-1-(4-phenylbutyl)piperidine]
- reduction of the contraction of the fibroblasts compared with the control (1 μM test compound, on average over the duration of the experiment (0, 4, 8 and 24 hours), experiment repeated three times): 17%

SMILES: CCOC(=O)C1=C(C)NC(C)=C(C(=O)OC)C1c1cccc([N+](=O)[O-])c1 (stereo not shown) [nitrendipine]
- activity as dermo-decontracting agent in the test of Example 1: not active

— US7629359B2, “Use of piperidine derivatives as dermo-decontracting agents” (L'Oreal, priority 2004, dated 2009)
